Key:
MenT3 = target: T1, MenT3 (Mycobacterium tuberculosis, UniProt P96356)
T1 construct: gene Rv1045

MenT1 = target: T2, MenT1 (Mycobacterium tuberculosis, UniProt L7N686)
T2 construct: gene Rv0078A

PcnA = PcnA (Mycobacterium tuberculosis, UniProt L7N672)
Chain of PcnA (L7N672 entry or part of it): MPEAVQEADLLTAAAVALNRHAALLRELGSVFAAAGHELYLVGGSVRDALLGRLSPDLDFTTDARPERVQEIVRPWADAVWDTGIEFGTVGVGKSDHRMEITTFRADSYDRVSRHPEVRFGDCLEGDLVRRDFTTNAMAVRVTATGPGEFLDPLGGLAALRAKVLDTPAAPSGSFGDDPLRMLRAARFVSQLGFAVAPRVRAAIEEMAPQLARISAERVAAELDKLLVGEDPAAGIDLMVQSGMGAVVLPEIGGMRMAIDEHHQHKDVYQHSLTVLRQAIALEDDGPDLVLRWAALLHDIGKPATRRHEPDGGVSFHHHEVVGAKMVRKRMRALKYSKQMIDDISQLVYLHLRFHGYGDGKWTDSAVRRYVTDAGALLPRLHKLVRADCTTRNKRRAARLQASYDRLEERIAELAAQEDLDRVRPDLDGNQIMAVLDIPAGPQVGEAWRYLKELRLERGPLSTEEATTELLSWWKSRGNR

T1 sequence (P96356 1-293): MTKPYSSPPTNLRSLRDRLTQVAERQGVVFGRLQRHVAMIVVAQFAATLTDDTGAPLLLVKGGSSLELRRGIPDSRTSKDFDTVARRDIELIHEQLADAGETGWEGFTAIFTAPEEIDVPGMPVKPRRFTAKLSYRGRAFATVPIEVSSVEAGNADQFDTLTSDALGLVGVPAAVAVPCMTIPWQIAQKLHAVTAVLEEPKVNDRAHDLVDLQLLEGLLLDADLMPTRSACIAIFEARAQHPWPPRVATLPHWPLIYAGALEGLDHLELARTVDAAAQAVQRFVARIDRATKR
T2 sequence (L7N686 1-197): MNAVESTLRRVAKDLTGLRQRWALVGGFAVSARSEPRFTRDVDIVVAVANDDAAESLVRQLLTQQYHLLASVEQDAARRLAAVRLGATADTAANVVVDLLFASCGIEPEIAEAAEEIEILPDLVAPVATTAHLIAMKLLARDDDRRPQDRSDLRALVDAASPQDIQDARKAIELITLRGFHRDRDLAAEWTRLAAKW

Structure (SMILES)	transfer of alpha-32P nucleotide to tRNA, urea-PAGE autoradiography (MenT3)	transfer of alpha-32P nucleotide to tRNA, urea-PAGE autoradiography (MenT1)	pyrophosphorolysis of labelled tRNA, urea-PAGE autoradiography (PcnA)
Nc1ccn([C@@H]2O[C@H](COP(=O)(O)OP(=O)(O)OP(=O)(O)O)[C@@H](O)[C@H]2O)c(=O)n1 [CTP]	CTP is by far the preferred nucleotide substrate of MenT3 in vitro	in the presence of α-32P labeled CTP for MenT1 and MenT3	–
O=P(O)(O)OP(=O)(O)O [inorganic pyrophosphate]	–	–	PcnA is indeed capable of generating truncated tRNA^Ser-4ΔA and ΔCA from MenT3-modified tRNA

From article PMC11541572, “Nucleotidyltransferase toxin MenT extends aminoacyl acceptor ends of serine tRNAs to control Mycobacterium tuberculosis growth” (Nature Communications, 2024)
